Experimental data taken from patent publication US20190106460A1, “BINDING INHIBITORS OF THE BETA. TRANSDUCIN REPEAT-CONTAINING PROTEIN” (priority 2011, published 2019).
Read-outs that look alike come from different tables or passages of the source. Starred links: 1 amine or outer side, 2 acyl side, 3 side chain; linkers in the order of their positions; H or OH if unused. Non-standard residues stand in square brackets, D forms with d. Residues, ends and D or L forms follow the SMILES beside them. Phe(4-NO2) = N[C@@H](Cc1ccc([N+](=O)[O-])cc1)C(=O)O; Phe(3-F) = N[C@@H](Cc1cccc(F)c1)C(=O)O; 1Nal = N[C@@H](Cc1cccc2ccccc12)C(=O)O; Maleoyl = O=C(/C=C\C(=O)[*:2])[*:1]; Suc = O=C(CCC(=O)[*:2])[*:1]

How the values were obtained:
Skp2 = Skp2 (Homo sapiens, UniProt Q13309); experiment: Selectivity assay vs other E3s: Skp2; type: biochemical; settings: for inhibition at 100 µM: value in brackets, read-out: % Inhibition Skp2 @ (100 μM); for inhibition at 10 µM: read-out: % Inhibition Skp2 @ 10 μM
Method in brief: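 Skp2 ubiquitination was measured in master mixes of 50 mM Herpes buffer, pH 7.5, with 75 mM NaCl and 1 mM DTT, lacking Mg or ATP. Test compounds were preincubated for 30 minutes at room temperature, Mg/ATP was added for a further 60 minutes, and reactions were boiled in SDS loading buffer, resolved on 10% SDS-PAGE, blotted to nitrocellulose and probed with HRP-Streptavidin.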

βTrCP/Skp1 = βTrCP/Skp1 (Homo sapiens, UniProt Q9Y297); experiment: Surface plasmon resonance (SPR), Biacore T200; type: binding; settings: apparent KD averaged over both surfaces
Protocol: Surface Plasmon Resonance (SPR)
Experiments were carried out using the Biacore T200 SPR detection system. This system exploits the phenomenon of surface plasmon resonance (SPR) to monitor interactions between molecules. The system involves the attachment of one interacting partner to a surface (an appropriate sensor chip) while the other interacting partner is passed over it in solution. The binding of molecules to the surface generates an SPR response (measured in response units (RU)) that is proportional to the mass and amount of the biomolecule (in this case βTrCP/Skp1) bound to the chip. The relative responses obtained are dependent on the concentration of the molecule binding. At RUmaximum, the attached protein's binding sites are saturated. Binding events can be followed in real time and a range of interaction characteristics can be determined including kinetics, specificity of interactions and the concentration of specific molecules in a sample.
As βTrCP was His tagged, an NTA sensor chip was used. This sensor chip has a dextran surface matrix with immobilized nitrilotriacetic acid (NTA) which provides a means of capturing polyHis-tagged proteins through Nickel chelation. It was hoped that addition of Ni^+ would orient the protein in a specific (and hopefully active) manner as it is covalently immobilised via amine coupling. Addition of EDC:NHS (N-ethyl-N′-(3-[…])-carbodiimide:N-hydroxysuccinimide) converts carboxyl groups on the dextran sensor chip surface to succinamide esters which readily form covalent bonds with primary amines. Each chip contains four flow cells (each a separate surface) which means that compounds/peptides can be passed over different forms of βTrCP and a reference surface simultaneously. If binding to βTrCP is occurring, responses should be the same (accounting for differences in density of surface etc) on each surface.
Two different βTrCP protein complexes were immobilised on to an NTA biacore sensor chip. One included the GSTSkp1 fusion (HisβTrCP/GSTSkp1) while the other was immobilised after GST Removal by Thrombin (HisβTrCP/Skp1). To ensure that the GST moiety is completely removed from Skp1, βTrCP/GSTSkp1 was incubated with thrombin ((10units/mg protein) for at least 16 hours at room temperature in 10mMHEPES 150mMNaCl pH7.4+2 mM CaCl2. Thrombin and GST were removed from βTrCP/Skp1 by buffer exchange through a 50 KDa MWCO vivaspin concentrator.
Protein Immobilisation Procedure for NTA Chip
Ni+ (500 μM NiCl) loaded on to surface at a flow rate of 5 μl/min for 60s. EDC/NHS (activates dextran carboxylates) loaded at a flow rate of 5 μl/min for 240s. Protein ([protein]=100 nM to 1 μM) loaded at a flow rate of 10 μl/min for 180s. Strip solution (350 μM EDTA/1M NaCl) added at flow rate of 10 μl/min for 30s (to chelate excess Ni+ and remove non-covalently bound protein e.g. protein oligomers). Quench solution (ethanolamine) at flow rate of 5 μl/min for 240s (to deactivate surface molecules on the chip that have not crosslinked protein). The immobilisation buffer used was 10 mM HEPES pH 7.4, 150 mM NaCl,
GST Capture Procedure (for Immobilisation Via GSTSkp1)
EDC:NHS was injected at 5 μl/min for 4 min to activate surface for amine coupling (this converts carboxyl groups on the surface of the chip to succinamide esters that react with primary amines)
Anti-GST (60 μg/ml). was loaded at 10 μl/min for 4 min resulting in an increase in response units of 6730 (Biacore manual states it should result in ˜7000)
Ethanolamine was injected at 5 μl/min for 5 min to deactivate remaining unreacted esters at surface (quenching).
Injection of a low concentration of purified GST (from kit) was injected for 3 mins at 5 μl/min before running a regeneration cycle with glycine pH2.0 that disrupts the antibody-GST interaction. […]

βTrCP [1] = molecular target: βTrCP (Homo sapiens, UniProt Q9Y297); experiment: Fluorescence polarisation (FP) binding assay with fluorescein-tagged IκB peptide
Target sequence in this assay (P63208 whole entry partner, one chain of several): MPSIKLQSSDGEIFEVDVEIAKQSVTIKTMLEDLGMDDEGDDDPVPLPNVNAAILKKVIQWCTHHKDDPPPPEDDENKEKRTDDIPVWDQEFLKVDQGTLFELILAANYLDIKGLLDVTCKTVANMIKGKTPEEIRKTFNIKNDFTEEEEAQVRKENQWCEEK

FBW7/Skp1 = FBW7/Skp1 (Homo sapiens, UniProt Q969H0); experiment: Selectivity assay vs other E3s: Fbw7; type: biochemical; settings: for inhibition at 100 µM: value in brackets, read-out: % Inhibition Fbw7 @ (100 μM); for inhibition at 10 µM: read-out: % Inhibition Fbw7 @ 10 μM
Method in brief: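 FBW7/Skp1 E3 ubiquitination of cyclin E substrate in 50 mM HEPES pH 7.5, 75 mM NaCl, 1 mM DTT; preincubated 30 min at room temperature before Mg/ATP, then 60 min more. Products resolved by 10% SDS-PAGE and immunoblotted with anti-cyclin E.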

β-TrCP1/Skp1 = β-TrCP1/Skp1 (Homo sapiens, UniProt Q9Y297); experiment: βTrCP ubiquitination assay (Ub assay); type: biochemical; settings: for Ub Assay 10 μM: 10 μM compound; for Ub Assay 100 μM: 100 μM compound
Method in brief: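 Compounds tested in duplicate at 10 and 100 μM in βTrCP(IκBα) and βTrCP(β-catenin) cascades with UBE1 E1, UbcH3 E2 and biotinylated ubiquitin; substrate phosphorylation done without compound, ubiquitination steps with compound. Product captured on anti-c-Myc plates and detected with SA-Ru TAG by MSD electrochemiluminescence.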

βTrCP [2] = molecular target: T1, βTrCP (Homo sapiens, UniProt Q9Y297); experiment: Biotin pull down assay with biotinylated IκB peptide; type: binding; settings: for Biotin Pulldown Assay 10 μM: 10 μM compound; for Biotin Pulldown Assay 100 μM: 100 μM compound
T1 sequence (Q9Y297 1-605): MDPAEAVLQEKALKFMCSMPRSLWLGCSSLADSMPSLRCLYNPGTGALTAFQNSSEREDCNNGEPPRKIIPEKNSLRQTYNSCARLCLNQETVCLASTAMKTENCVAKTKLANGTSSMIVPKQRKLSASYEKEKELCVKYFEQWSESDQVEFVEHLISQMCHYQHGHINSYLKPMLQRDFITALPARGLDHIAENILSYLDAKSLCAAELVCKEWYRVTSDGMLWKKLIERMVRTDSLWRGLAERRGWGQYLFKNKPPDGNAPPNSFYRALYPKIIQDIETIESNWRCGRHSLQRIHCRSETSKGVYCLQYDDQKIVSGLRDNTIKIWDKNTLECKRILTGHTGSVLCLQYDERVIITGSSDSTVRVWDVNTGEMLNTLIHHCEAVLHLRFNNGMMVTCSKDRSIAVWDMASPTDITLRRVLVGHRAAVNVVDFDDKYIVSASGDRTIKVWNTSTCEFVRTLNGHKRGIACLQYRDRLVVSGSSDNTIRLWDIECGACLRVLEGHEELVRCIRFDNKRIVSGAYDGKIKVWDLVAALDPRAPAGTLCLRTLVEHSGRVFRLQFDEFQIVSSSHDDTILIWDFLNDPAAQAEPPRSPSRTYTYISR

[3] = Table 11, with spread, read-out: FP IC50/μM
[4] = Tables 1, 3, 7, 8, 10 nM fluorescein-tagged IκB peptide, read-out: FP Assay IC50/μM

Chain of β-TrCP1/Skp1 (P63208 2-163 partner limits assumed, one chain of several): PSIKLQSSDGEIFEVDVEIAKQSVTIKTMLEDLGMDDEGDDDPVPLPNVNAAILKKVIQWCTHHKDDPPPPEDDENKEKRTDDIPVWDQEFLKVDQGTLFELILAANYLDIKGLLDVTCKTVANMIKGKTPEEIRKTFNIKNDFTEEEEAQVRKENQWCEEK
Chain of βTrCP/Skp1 (P63208 whole entry partner, one chain of several): as the sequence (P63208 whole entry partner, one chain of several) above
Chain of FBW7/Skp1 (Q969H0 whole entry, species assumed): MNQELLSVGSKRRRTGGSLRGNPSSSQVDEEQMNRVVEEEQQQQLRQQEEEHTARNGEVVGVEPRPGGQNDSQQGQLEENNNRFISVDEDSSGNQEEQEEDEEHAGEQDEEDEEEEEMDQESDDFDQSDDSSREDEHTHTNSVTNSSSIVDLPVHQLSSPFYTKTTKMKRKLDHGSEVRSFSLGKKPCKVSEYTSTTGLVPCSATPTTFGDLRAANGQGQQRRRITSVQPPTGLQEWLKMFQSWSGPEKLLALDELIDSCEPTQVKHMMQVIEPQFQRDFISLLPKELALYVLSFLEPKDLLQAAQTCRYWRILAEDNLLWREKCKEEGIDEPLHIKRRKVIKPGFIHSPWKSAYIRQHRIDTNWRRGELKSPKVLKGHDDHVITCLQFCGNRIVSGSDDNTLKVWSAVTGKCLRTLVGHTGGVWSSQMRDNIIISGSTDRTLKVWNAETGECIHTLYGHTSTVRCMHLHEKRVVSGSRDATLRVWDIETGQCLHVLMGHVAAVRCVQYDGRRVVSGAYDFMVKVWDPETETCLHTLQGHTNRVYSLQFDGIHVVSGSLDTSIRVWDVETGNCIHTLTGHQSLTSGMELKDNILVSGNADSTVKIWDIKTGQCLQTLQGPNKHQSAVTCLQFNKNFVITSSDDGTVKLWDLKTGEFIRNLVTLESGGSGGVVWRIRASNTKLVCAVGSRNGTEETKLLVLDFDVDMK
Chain of FBW7/Skp1 (P63208 whole entry partner, species assumed): as the sequence (P63208 whole entry partner, one chain of several) above
Chain of FBW7/Skp1 (Q13616 whole entry partner, species assumed): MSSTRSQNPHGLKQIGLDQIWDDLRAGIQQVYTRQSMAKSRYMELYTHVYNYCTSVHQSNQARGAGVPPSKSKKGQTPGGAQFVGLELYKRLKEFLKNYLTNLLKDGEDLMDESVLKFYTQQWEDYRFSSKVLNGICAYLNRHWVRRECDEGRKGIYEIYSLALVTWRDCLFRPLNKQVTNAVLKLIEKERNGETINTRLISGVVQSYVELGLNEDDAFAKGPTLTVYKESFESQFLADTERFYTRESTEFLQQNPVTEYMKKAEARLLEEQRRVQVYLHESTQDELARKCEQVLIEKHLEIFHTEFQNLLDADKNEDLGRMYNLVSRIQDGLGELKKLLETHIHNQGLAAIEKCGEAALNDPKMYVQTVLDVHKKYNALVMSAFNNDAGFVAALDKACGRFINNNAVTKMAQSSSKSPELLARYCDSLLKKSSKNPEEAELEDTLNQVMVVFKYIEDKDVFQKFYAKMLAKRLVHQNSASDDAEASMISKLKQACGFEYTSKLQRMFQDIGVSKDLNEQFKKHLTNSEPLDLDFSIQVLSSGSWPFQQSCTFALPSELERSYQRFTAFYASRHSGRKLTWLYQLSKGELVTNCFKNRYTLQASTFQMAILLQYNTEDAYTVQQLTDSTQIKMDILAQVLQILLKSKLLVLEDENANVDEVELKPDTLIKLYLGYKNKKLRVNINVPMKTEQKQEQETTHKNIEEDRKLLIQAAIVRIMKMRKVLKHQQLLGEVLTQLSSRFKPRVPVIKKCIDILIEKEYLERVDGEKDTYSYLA
Chain of FBW7/Skp1 (P62877 whole entry partner, species assumed): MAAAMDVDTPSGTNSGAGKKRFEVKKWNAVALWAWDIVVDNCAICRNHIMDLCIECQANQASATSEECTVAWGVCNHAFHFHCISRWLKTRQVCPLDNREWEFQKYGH
Chain of Skp2 (Q13309 whole entry, species assumed): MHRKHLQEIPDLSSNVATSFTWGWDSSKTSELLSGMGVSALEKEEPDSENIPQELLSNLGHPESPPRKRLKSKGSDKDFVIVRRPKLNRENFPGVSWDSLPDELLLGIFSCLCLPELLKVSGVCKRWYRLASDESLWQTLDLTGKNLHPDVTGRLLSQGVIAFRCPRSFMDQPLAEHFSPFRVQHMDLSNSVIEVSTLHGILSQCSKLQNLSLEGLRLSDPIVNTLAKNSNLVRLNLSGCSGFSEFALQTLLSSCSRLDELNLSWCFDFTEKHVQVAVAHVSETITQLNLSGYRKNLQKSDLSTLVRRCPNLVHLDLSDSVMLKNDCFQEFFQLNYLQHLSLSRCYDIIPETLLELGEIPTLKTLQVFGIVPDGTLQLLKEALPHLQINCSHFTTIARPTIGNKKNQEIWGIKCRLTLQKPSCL
Chain of Skp2 (P63208 whole entry partner, species assumed): as the sequence (P63208 whole entry partner, one chain of several) above
Chain of Skp2 (Q13616 whole entry partner, species assumed): as the sequence (Q13616 whole entry partner, species assumed) above
Chain of Skp2 (P62877 whole entry partner, species assumed): as the sequence (P62877 whole entry partner, species assumed) above

| Structure (SMILES) | inhibition at 100 µM (Skp2) [%] | inhibition at 10 µM (Skp2) [%] | Kd (βTrCP/Skp1) [µM] | IC50 (βTrCP [1]; [3]) [µM] | inhibition at 100 µM (FBW7/Skp1) [%] | inhibition at 10 µM (FBW7/Skp1) [%] | Ub Assay 10 μM (β-TrCP1/Skp1) | Ub Assay 100 μM (β-TrCP1/Skp1) | Biotin Pulldown Assay 10 μM (βTrCP [2]) | Biotin Pulldown Assay 100 μM (βTrCP [2]) | IC50 (βTrCP [1]; [4]) [µM] |
| --- | --- | --- | --- | --- | --- | --- | --- | --- | --- | --- | --- |
| NC(=O)[C@H](CCC(=O)O)NC(=O)[C@H](Cc1ccc([N+](=O)[O-])cc1)NC(=O)[C@H](Cc1cccc(F)c1)NC(=O)CNC(=O)[C@H](CCC(=O)O)NC(=O)/C=C\C(=O)O [UBP008, Mal-EGF(3F)F(4NO2)E-NH2] (Maleoyl-EG[Phe(3-F)][Phe(4-NO2)]E-NH2) | 14 | 0 | 1.46 ± 0.035 | 2.17 ± 0.425 | 18 | 0 | no effect/ | inhibits | no effect/ | inhibits | – |
| NC(=O)[C@H](CCC(=O)O)NC(=O)[C@H](Cc1cccc2ccccc12)NC(=O)[C@H](Cc1ccc(O)cc1)NC(=O)CNC(=O)[C@H](CCC(=O)O)NC(=O)CCC(=O)O [UBP009, Suc-EGY1NalE-NH2] (Suc-EGY[1Nal]E-NH2) | 6 | 0 | 1.49 ± 0.625 | 1.15 ± 0.222 | 5 | 1 | reduces/ | inhibits | no effect/ | inhibits | 1.15 |
| NC(=O)[C@H](CCC(=O)O)NC(=O)[C@H](Cc1cccc2ccccc12)NC(=O)[C@H](Cc1cccc(F)c1)NC(=O)CNC(=O)[C@H](CCC(=O)O)NC(=O)CCC(=O)O [UBP010, Suc-EGF(3F)1NalE-NH2] (Suc-EG[Phe(3-F)][1Nal]E-NH2) | 12 | 0 | 0.32 ± 0.24 | 0.157 ± 0.037 | 0 | 3 | inhibits/ | inhibits | inhibits/ | inhibits | 0.157 |
| NC(=O)[C@H](CCC(=O)O)NC(=O)[C@H](Cc1cccc2ccccc12)NC(=O)[C@H](Cc1ccc([N+](=O)[O-])cc1)NC(=O)CNC(=O)[C@H](CCC(=O)O)NC(=O)CCC(=O)O [UBP011, Suc-EGF(4NO2)1NalE-NH2] (Suc-EG[Phe(4-NO2)][1Nal]E-NH2) | 6 | 12 | 1.96 ± 0.635 | 1.31 ± 0.198 | 28 | 14 | reduces/ | inhibits | reduces/ | inhibits | – |
| NC(=O)CC[C@H](NC(=O)CCC(=O)O)C(=O)NCC(=O)N[C@@H](Cc1cccc(F)c1)C(=O)N[C@@H](Cc1ccc([N+](=O)[O-])cc1)C(=O)N[C@@H](CCC(=O)O)C(N)=O [UBP012, Suc-QGF(3F)F(4NO2)E-NH2] | 0 | 0 | 5.49 ± 2.27 | 2.56 ± 0.374 | 0 | 0 | no effect/ | inhibits | no effect/ | reduces | – |
| NC(=O)[C@H](CCC(=O)O)NC(=O)[C@H](Cc1ccc([N+](=O)[O-])cc1)NC(=O)[C@H](Cc1ccc(O)cc1)NC(=O)CNC(=O)[C@H](CCC(=O)O)NC(=O)CCC(=O)O [UBP013, Suc-EGYF(4NO2)E-NH2] (Suc-EGY[Phe(4-NO2)]E-NH2) | 31 | 11 | 17.7 ± 5.2 | 2.07 ± 0.346 | 0 | 0 | no effect/ | inhibits | no effect/ | inhibits | – |
| NC(=O)[C@H](CCC(=O)O)NC(=O)[C@H](Cc1c[nH]c2ccccc12)NC(=O)[C@H](Cc1cccc(F)c1)NC(=O)CNC(=O)[C@H](CCC(=O)O)NC(=O)CCC(=O)O [UBP014, Suc-EGF(3F)WE-NH2] (Suc-EG[Phe(3-F)]WE-NH2) | 6 | 5 | 0.455 ± 0.03 | 0.095 ± 0.009 | 0 | 0 | reduces/ | inhibits | reduces/ | inhibits | 0.095 |
| NC(=O)[C@H](CCC(=O)O)NC(=O)[C@H](Cc1c[nH]cn1)NC(=O)[C@H](Cc1cccc(F)c1)NC(=O)CNC(=O)[C@H](CCC(=O)O)NC(=O)CCC(=O)O [UBP015, Suc-EGF(3F)HE-NH2] (Suc-EG[Phe(3-F)]HE-NH2) | 18 | 3 | 0.4 ± 0.021 | 0.521 ± 0.059 | 83 | 12 | reduces/ | inhibits | reduces/ | inhibits | 0.521 |
